Experimental data from patent US6492365B1, “Microsomal triglyceride transfer protein” (Bristol-Myers Squibb Company, priority 1992, dated 2002).
pIC50: −log10 of the molar value. Structures can show the parent of a compound that is named as a salt.

Tests used:
[1] = test system: TG secretion from HepG2 cells; assay: TG secretion from HepG2 cells (3H-glycerol labelling, extraction, TLC); format: cell-based; details: Homo sapiens, 1.25 μM-20 μM, 3H-glycerol labelling for two hours, read-out: IC50 for inhibition of TG secretion
Protocol: HepG2 cells were treated with Compound A at the indicated doses for […], the last two hours of which were in the presence of 5 μCi/mL 3H-glycerol. The concentration of radiolabelled triglycerides in the cell culture media was measured by quantitative extraction, followed by thin layer chromatography analysis and normalization to total cell protein. The data shown are expressed as a percentage of the control (DMSO only).
HepG2 cells were subcultured into 6-well dishes and allowed to come to confluency at least 24 hours before drug treatment. Prior to addition of the drug, culture media were removed, cells washed once with PBS, and 1 mL of fresh medium (RPMI 1640+10% FBS) was added quatitatively. […]
Total lipids were extracted from the media and analyzed as follows. […] Raw data was normalized to cell protein and expressed as percent of DMSO control.
HepG2 cells were treated with doses of compound A ranging from 1.25 μM-20 μM under conditions identical to those utilized for the apoB, apoAl and HSA secretion experiment. The intracellular pool of TG was radiolabelled for two hours with 3H-glycerol in the presence of vehicle or varying doses of compound A. The accumulation of radiolabelled TG in the medium was measured by quantitative extraction, followed by thin layer chromatography analysis and normalization to total cell protein. […]

bovine MTP = molecular target: T1, bovine MTP (Bos taurus, UniProt P55156); assay: MTP-catalyzed transport of 14C-PC from donor SUV to acceptor SUV; format: biochemical; details: at concentrations of inhibitor which decreased TG and CE transfer more than 80%
T1 construct: with about 50-200 ng purified MTP in the well of a 96-well plate; from tissue; host or cells: bovine liver
T1 sequence (P55156 12-887): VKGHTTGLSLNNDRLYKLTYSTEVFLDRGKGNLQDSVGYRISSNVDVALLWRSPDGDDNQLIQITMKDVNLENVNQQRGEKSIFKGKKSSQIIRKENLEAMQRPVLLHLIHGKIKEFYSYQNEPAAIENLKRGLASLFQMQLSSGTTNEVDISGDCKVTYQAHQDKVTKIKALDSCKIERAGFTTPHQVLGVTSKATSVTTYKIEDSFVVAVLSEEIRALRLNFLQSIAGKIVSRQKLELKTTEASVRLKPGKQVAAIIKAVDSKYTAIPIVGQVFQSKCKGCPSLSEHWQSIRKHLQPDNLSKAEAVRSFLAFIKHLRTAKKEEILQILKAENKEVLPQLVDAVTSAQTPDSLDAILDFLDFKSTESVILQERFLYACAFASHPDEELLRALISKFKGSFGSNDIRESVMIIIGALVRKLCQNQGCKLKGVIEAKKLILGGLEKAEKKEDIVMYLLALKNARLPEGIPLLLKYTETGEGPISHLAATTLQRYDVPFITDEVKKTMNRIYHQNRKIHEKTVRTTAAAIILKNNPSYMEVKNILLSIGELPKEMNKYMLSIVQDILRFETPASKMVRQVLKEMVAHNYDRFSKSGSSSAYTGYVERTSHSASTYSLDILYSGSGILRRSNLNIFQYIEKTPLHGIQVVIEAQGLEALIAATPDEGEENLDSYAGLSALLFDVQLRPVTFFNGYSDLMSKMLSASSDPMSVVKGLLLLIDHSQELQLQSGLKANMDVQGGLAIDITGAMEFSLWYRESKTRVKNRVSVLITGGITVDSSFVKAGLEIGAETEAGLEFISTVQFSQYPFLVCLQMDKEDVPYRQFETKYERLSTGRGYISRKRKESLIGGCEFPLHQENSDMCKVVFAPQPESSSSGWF
T1 sequence (P05307 21-510 partner): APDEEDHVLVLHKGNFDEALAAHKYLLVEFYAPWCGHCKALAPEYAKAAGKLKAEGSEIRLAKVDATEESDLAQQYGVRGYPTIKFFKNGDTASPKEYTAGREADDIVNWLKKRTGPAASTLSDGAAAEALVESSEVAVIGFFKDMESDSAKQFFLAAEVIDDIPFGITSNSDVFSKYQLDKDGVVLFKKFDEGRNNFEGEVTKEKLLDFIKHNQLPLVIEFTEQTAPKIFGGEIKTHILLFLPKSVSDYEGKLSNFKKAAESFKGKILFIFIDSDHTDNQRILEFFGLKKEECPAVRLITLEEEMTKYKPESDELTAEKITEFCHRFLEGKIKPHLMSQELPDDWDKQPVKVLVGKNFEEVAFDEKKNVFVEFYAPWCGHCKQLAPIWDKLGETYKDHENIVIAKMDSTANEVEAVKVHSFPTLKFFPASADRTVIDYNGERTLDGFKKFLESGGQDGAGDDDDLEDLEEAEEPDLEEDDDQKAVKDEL
Protocol: To measure the effect of compound A on bovine MTP-catalyzed transport of CE or PC between membranes, the lipid transfer assay which measures TG transfer between SUV was modified. The composition of the donor vesicles was the same, except 0.25 mol% ^14C-CE or ^14C-PC replaced the labeled TG. The composition of the acceptor vesicles were the same, except labeled PC and unlabeled TG were not included. Following precipitation of donor vesicles, the percentage of lipid transfer was calculated by comparing the ^14C-CE or -PC in the acceptor vesicles in the supernatant following a transfer reaction to the total ^14C-CE or -PC in the assay. The labeled lipid in the supernatant in the absence of MTP was subtracted from the labeled lipid in the presence MTP to calculate the MTP-catalyzed lipid transfer from donor SUV to acceptor SUV. The remainder of the assay was essentially as described previously.

SMILES: O=C1c2ccccc2CN1C1CCN(CCC(c2ccccc2)c2ccccc2)CC1 [compound A, 2-[1-(3,3-diphenylpropyl)-4-piperdinyl]-2,3-dihydro-3-oxo-1H-isoindole hydrochloride]
- pIC50 [1]: ~5.70
- PC transfer inhibited (bovine MTP): Approximately 40%
